Literature values, collected in patent US11980189B2, “Agricultural formulations, uses thereof and processes for preparation thereof” (Valent U.S.A. LLC, priority 2020, dated 2024).

Structure (SMILES): COCC(=O)N(c1c(C)cccc1C)C(C)C(=O)OC (stereo not shown) [metalaxyl, Metalaxyl]
- partial water solubility: 8,400 parts per million
